Legend:
[1] = tested on: overweight human subject; assay: Example 5: XENICAL regimen changed to XENICAL plus behenic acid capsules in an overweight human subject; assay type: in vivo; conditions: behenic acid 1.2 g capsule with XENICAL (120 mg orlistat) at each meal
Protocol: An overweight human subject is given a therapeutic dose of XENICAL@ (360 mg orlistat per day/three doses of 120 mg orlistat with each meal) to assist in the reduction of body weight.
When these symptoms are first observed, the regimen is modified to a combination of XENICAL® and behenic acid. At each meal, the subject consumes two capsules. The first capsule is XENICAL® (120 mg orlistat) while the second capsule contains the behenic acid (1.2 g). These capsules are co-packaged in a kit for the convenience of the subject.

[2] = tested on: overweight human subject; assay: Example 4: XENICAL regimen with separate magnesium stearate wafer in an overweight human subject; assay type: in vivo
Protocol: XENICAL® is prescribed to an overweight human subject at a therapeutic dose of 120 mg orlistat taken with each of three daily meals. This dose causes a reduction in the absorption of dietary fat such that total caloric intake by the subject is reduced by approximately 10%, relative to the subjects normal dietary energy intake. […] In particular, magnesium stearate is provided at an amount of 1 gram incorporated into a wafer that is consumed with each meal, resulting in a total consumption of 3 grams per day of magnesium stearate. […] The efficacy of the XENICAL® is unaffected by the addition of magnesium stearate to the diet.

[3] = tested on: male, Sprague-Dawley rats; assay: Fur appearance score: separation of excreted dietary oil from fecal matter in rats fed food compositions; assay type: in vivo, rat; conditions: food with 0.04% orlistat, no calcium stearate, ad libitum 11 days, assessed days 7 and 11; scale 1 (no oil visible on fur) to 5 (>90% of fur oiled)
Excerpt: Groups of male, Sprague-Dawley rats (commercially available from Harlan Labs, Indianapolis, Ind.), were presented with a composition, which was a food composition, containing either 0.04% orlistat, by weight of the composition, or the combination of 0.04% orlistat and 1%, 0.5%, or 0.25% calcium stearate, all by weight of the composition. The fat content of each composition provided 30% of the consumed energy of the rat. Another group of rats (also male, Sprague Dawley, commercially available from Harlan Labs, Indianapolis, Ind.) were presented with the same food compositions, except devoid of orlistat and calcium stearate (“control compositions”). All rats consumed their respective compositions ad libitum for 11 days.
On the seventh and eleventh days of these dietary regimens, the appearance of each rat was viewed by assessors not aware of the identity of composition consumed by the rats. Separation of oil from the other fecal matter of each rat was determined by the use of a scale that quantified the fraction of the rat's fur that was coated with excreted dietary oil. […] Intermediate scores of “2,” “3,” and “4” indicated partial covering of the rat's fur, with “2” corresponding to approximately 10% coverage or less, “3” corresponding to approximately greater than 10% to approximately 50% coverage, and “4” corresponding to approximately greater than 50% to approximately 90% coverage.

With `CCCCCCCCCCCCCCCCCCCCCC(=O)O` [behenic acid] the “state of the excreted fat” value [1] was “stiffened”.

For magnesium stearate, the “effect on gastrointestinal discomfort and anal leakage of unabsorbed oil” value ([2]; 1 gram magnesium stearate in a wafer with each meal (3 grams per day), together with XENICAL) was “prevents the gastrointestinal discomfort and anal leakage of unabsorbed oil” and the “efficacy of XENICAL on addition of magnesium stearate to the diet” value ([2]; 3 grams per day magnesium stearate with XENICAL 120 mg orlistat per meal) was “unaffected”.

`CCCCCCCCCCCC(CC1OC(=O)C1CCCCCC)OC(=O)C(CC(C)C)NC=O` (stereo not shown) [orlistat, tetrahydrolipstatin] was tested, and the “mean fur appearance score” value [3] was 2.4.
